Assay results published in article PMC9154759 (2022).

Test system: aptamer 1 (DNA, aptamer) GGGAGCTCAGAATAAACGCTCAATACTATCGCGGAGACAGCGCGGGAGGCACCGGGGAGATCCGGGCCTCATGTCGAA
Assay: berberine fluorescence enhancement (ex 365 nm, em 530 nm)
Settings: 37 °C, 30 min; 50 μg/mL berberine, 0-280 nM aptamer, plateau at 200 nM; binding buffer not stated

binding: yes
Structure (SMILES): COc1ccc2cc3[n+](cc2c1OC)CCc1cc2c(cc1-3)OCO2
